Source: patent US9169241B2, “Quinolinyloxyphenylsulfonamides” (Max-Planck-Gesellschaft Zur Forderung der Wissenschaften …, priority 2009, dated 2015)
pIC50: −log10 of the molar value.

What was measured:
[1] = biological target: T1, wild type AXL (wtAXL) receptor tyrosine kinase (Homo sapiens, UniProt P30530); test: NIH-3T3-AXL cellular kinase assay (pY-AXL-ELISA); type: cell-based; conditions: NIH-3T3-AXL (clone 22) cells, serum depleted, compounds 1 h; Table Ia
T1 construct: WtAXL cDNA was cloned into vector pLXSN(ESK) and transfected into Phoenix E packaging cells; expressed in transfected cells; host or cells: NIH3T3 N7 (mouse fibroblasts), retrovirally infected, clone 22
T1 sequence (P30530 26-894): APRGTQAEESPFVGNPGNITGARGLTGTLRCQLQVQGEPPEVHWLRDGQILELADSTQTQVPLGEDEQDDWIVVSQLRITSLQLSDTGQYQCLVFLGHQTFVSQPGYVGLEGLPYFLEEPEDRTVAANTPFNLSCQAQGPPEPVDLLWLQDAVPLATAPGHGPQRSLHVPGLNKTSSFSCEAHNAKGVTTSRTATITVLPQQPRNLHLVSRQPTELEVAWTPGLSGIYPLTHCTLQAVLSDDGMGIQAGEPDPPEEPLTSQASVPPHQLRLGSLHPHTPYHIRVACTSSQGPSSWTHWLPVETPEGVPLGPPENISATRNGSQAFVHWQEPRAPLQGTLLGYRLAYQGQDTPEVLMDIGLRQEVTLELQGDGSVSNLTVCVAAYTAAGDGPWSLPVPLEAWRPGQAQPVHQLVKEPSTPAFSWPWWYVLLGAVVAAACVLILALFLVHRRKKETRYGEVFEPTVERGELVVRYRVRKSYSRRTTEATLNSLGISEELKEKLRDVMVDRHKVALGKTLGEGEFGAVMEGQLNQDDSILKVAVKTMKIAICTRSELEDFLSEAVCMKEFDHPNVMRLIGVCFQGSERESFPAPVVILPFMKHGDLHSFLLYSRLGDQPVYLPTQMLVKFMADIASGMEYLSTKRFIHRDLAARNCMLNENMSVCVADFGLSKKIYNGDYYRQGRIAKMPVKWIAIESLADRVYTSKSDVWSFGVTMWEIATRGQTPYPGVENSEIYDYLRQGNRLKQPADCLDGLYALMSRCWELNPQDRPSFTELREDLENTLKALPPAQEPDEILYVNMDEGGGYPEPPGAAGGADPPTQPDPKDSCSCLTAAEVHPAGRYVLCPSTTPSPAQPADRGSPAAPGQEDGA
Description: WtAXL cDNA was cloned into vector pLXSN(ESK) and transfected into Phoenix E packaging cells. The viral supernatant was collected and used to infect target cells NIH3T3 N7. Monoclonal NIH3T3-AXL cell lines stably expressing wtAXL were generated by selecting retrovirally infected cells in medium containing puromycin (2 μg/ml) and subsequent clonal separation.
Serial dilutions of compounds were added, and the cells were further incubated for 1 h. Cells were washed with PBS and lysed on ice in 500 μl lysis buffer (50 mM HEPES (pH 7.5), 150 mM NaCl, 1 mM EGTA, 10% Glycerol, 1% Triton X-100, 100 mM NaF, 10 mM Na4P2O7.10H2O, 1 mM Na3VO4, 1 mM phenylmethylsulfonyl fluoride, and […]) for 15 min. The cell lysate were used for phosphotyrosine AXL enzyme-linked immunosorbant assay (pY-AXL-ELISA). […] Subsequently 96-well plates were blocked with PBS-0.05% Tween®20+10% FBS for 4 h at 37° C. Plates were washed 5 times with PBS-0.05% Tween®20 and 95 μl of lysate was transferred per well for incubation overnight at 4° C. Plates were washed 5 times with PBS-0.05% Tween®20 (Sigma, Steinheim, Germany). For detection of phosphorylated tyrosine we used homemade biotynilated 4G10-antibody (0.5 μg/ml) in PBS-0.05% Tween®20+10% FBS (100 μl/well) and incubated the 96-well plate for 2 h at room temperature. The anti-phosphotyrosine mouse monoclonal antibody 4G10 was biotynilated with Sulfo-NHS®-Biotin according to the suppliers protocol (Pierce, Rockford, Ill., USA) and purified by Mirco Bio-Spin 6 Chromatograpy Columns (BIO RAD Laboratories, Inc., Hercules, Calif., USA) using PBS as diluent. Plates were washed 5 times with PBS-0.05% Tween®20. For biding to biotin Alkaline Phosphatase Conjugated Strepavidin SA110 (Millipore, Billerica, Mass., USA) (1:4000) was used in PBS-0.05% Tween20+10% FBS (100 μl/well) and incubated for 30 min at room temperature. Plates were washed 5 times with PBS-0.05% Tween20. For fluorimetric detection of alkaline phosphatase AttoPhos Substrate Set (Roche diagnostics GmbH, Mannheim, Germany) was used (100 μl/well). The fluorimetric signal was quantified after 90 min at 430/560 nm wavelength using a TECAN Ultra Evolution plate reader (Tecan Deutschland GmbH, Crailsheim, Germany).

[2] = system: Hs578T; test: Cell vitality assay (ATP assay, CellTiter-Glo); type: cell-based; conditions: Homo sapiens, Hs-578T; HS578T cell line, 72 h; Table Ib; read-out: IC50 ATP-Assay HS578T after 72 h
Procedure, shortened: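 Viability is estimated from cellular ATP after 72 h of compound treatment at 1000 cells per well. The dilution series runs 12.5, 6.25, 3.125, 1.56, 0.78, 0.39 and 0.195 μM. Half-maximal values are expressed against DMSO-treated wells.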

[3] = system: Hs578T; test: Wound healing migration assay; type: cell-based; conditions: Homo sapiens, Hs-578T; HS578T cell line; Table Ib
Procedure, shortened: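 Compound exposure at 12.5, 6.25 and 3.125 μM, with DMSO control, on scratch-wounded monolayers (150000 cells/24 well, overnight). Wound closure imaged by microscopy, fixed with crystal violet after 48 h or 72 h depending on cell line; IC50 is the concentration giving 50% wound size between t0 and t48/t72.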

[4] = system: Hs578T; test: Matrigel outgrowth assay/branching assay; type: cell-based; conditions: Homo sapiens, Hs-578T; HS578T cell line; Table Ib; read-out: Total branching inhibition in Matrigel HS578T
Procedure, shortened: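 Cells (5000/well) were seeded onto polymerized 3 mg/ml Matrigel with compound at 3.125, 1.56 or 0.78 μM versus DMSO. Branching was imaged by inverted microscopy (5× objective) at 48, 72 and 96 h. Only concentrations giving total branching inhibition scored positive.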

| pIC50 [1] | pIC50 [3] | melting point [°C] | Compound | pIC50 [2] | pIC50 [4] |
| --- | --- | --- | --- | --- | --- |
| > 6.30 | 4.30 to 4.90 | 160 to 161 | COc1cc2c(Oc3ccc(NS(=O)(=O)c4ccccc4)cc3F)ccnc2cc1OCCCN1CCCC(C)C1 (stereo not shown) [Example 36, N-(3-Fluoro-4-{6-methoxy-7-[3-(3-methyl-piperidin-1-yl)-propoxy]-quinolin-4-yloxy}-phenyl)-benzenesulfonamide] | ≥ 4.90 | 4.60 to 5.00 |
| > 6.30 | 4.30 to 4.90 | 216 to 218 | COc1cc2c(Oc3ccc(NS(=O)(=O)c4ccccc4C(F)(F)F)cc3OC)ccnc2cc1OCCCN1CCC(C)CC1 [Example 208, N-(3-Methoxy-4-{6-methoxy-7-[3-(4-methyl-piperidin-1-yl)-propoxy]-quinolin-4-yloxy}-phenyl)-2-trifluoromethyl-benzenesulfonamide] | ≥ 4.90 | 4.60 to 5.00 |
| > 6.30 | 4.30 to 4.90 | 129 to 131 | COc1cc2c(Oc3ccc(NS(=O)(=O)c4ccccc4[N+](=O)[O-])cc3F)ccnc2cc1OCCN1CCOCC1 [Example 109, N-{3-Fluoro-4-[6-methoxy-7-(2-morpholin-4-yl-ethoxy)-quinolin-4-yloxy]-phenyl}-2-nitro-benzenesulfonamide] | ≥ 4.90 | 4.60 to 5.00 |
| > 6.30 | – | 122 to 124 | COc1cc2c(Oc3ccc(NS(=O)(=O)c4c(F)cccc4F)cc3Cl)ccnc2cc1OCCCN1CCN(C)CC1 [Example 118, N-(3-Chloro-4-{6-methoxy-7-[3-(4-methyl-piperazin-1-yl)-propoxy]-quinolin-4-yloxy}-phenyl)-2,6-difluoro-benzenesulfonamide] | – | – |
| – | 4.30 to 4.90 | 215 to 217 | COc1cc2c(Oc3ccc(NS(=O)(=O)c4cnc(C)[nH]4)cc3F)ccnc2cc1OCCCN1CCN(C)CC1 [Example 170, 2-Methyl-3H-imidazole-4-sulfonic acid (3-fluoro-4-{6-methoxy-7-[3-(4-methyl-piperazin-1-yl)-propoxy]-quinolin-4-yloxy}-phenyl)-amide] | 4.30 to 4.90 | 4.60 to 5.00 |
| – | 4.30 to 4.90 | 96 to 98 | COc1cc2c(Oc3ccc(NS(=O)(=O)c4c(C)nn(C)c4C)cc3F)ccnc2cc1OCCCN1CCCCC1 [Example 159, 1,3,5-Trimethyl-1H-pyrazole-4-sulfonic acid {3-fluoro-4-[6-methoxy-7-(3-piperidin-1-yl-propoxy)-quinolin-4-yloxy]-phenyl}-amide] | ≥ 4.90 | 4.60 to 5.00 |

The next lines start with the molecule.

| Compound | pIC50 [1] | pIC50 [3] | melting point [°C] | pIC50 [2] | pIC50 [4] |
| --- | --- | --- | --- | --- | --- |
| COc1ccc2nccc(Oc3ccc(NS(=O)(=O)c4ccccc4C(F)(F)F)cc3F)c2c1 [Example 201, N-[3-Fluoro-4-(6-methoxy-quinolin-4-yloxy)-phenyl]-2-trifluoromethyl-benzenesulfonamide] | 5.52 to 6.30 | 4.30 to 4.90 | 168 to 169 | 4.30 to 4.90 | 4.60 to 5.00 |
| COc1cc2c(Oc3ccc(NS(=O)(=O)c4cc(F)ccc4F)cc3OC)ccnc2cc1OCCCN1CCC(C)CC1 [Example 207, 2,5-Difluoro-N-(3-methoxy-4-{6-methoxy-7-[3-(4-methyl-piperidin-1-yl)-propoxy]-quinolin-4-yloxy}-phenyl)-benzenesulfonamide] | 5.52 to 6.30 | ≥ 4.90 | 170 to 172 | ≥ 4.90 | 4.60 to 5.00 |
| COc1ccc2nccc(Oc3ccc(NS(=O)(=O)c4ccccc4OC(F)(F)F)cc3F)c2c1 [Example 202, N-[3-Fluoro-4-(6-methoxy-quinolin-4-yloxy)-phenyl]-2-trifluoromethoxy-benzenesulfonamide] | 5.52 to 6.30 | 4.30 to 4.90 | 175 to 176 | 4.30 to 4.90 | 4.60 to 5.00 |
| COc1cc2c(Oc3ccc(NS(=O)(=O)c4c(Cl)csc4Cl)cc3F)ccnc2cc1OCCCN1CCCCC1C (stereo not shown) [Example 146, 2,4-Dichloro-thiophene-3-sulfonic acid (3-fluoro-4-{6-methoxy-7-[3-(2-methyl-piperidin-1-yl)-propoxy]-quinolin-4-yloxy}-phenyl)-amide] | > 6.30 | ≥ 4.90 | 131 to 132 | ≥ 4.90 | 4.60 to 5.00 |
| COc1cc2c(Oc3ccc(NS(=O)(=O)c4c(C)nn(C)c4C)cc3F)ccnc2cc1OCCCN1CCOCC1 [Example 161, 1,3,5-Trimethyl-1H-pyrazole-4-sulfonic acid {3-fluoro-4-[6-methoxy-7-(3-morpholin-4-yl-propoxy)-quinolin-4-yloxy]-phenyl}-amide] | – | 4.30 to 4.90 | 163 to 164 | ≥ 4.90 | 4.60 to 5.00 |
| COc1ccc2nccc(Oc3ccc(NS(=O)(=O)c4cc(Cl)ccc4Cl)cc3F)c2c1 [Example 203, 2,5-Dichloro-N-[3-fluoro-4-(6-methoxy-quinolin-4-yloxy)-phenyl]-benzenesulfonamide] | – | ≥ 4.90 | 253 to 255 | ≥ 4.90 | 4.60 to 5.00 |
| COc1cc2c(Oc3ccc(NS(=O)(=O)c4sc(NC(C)=O)nc4C)cc3F)ccnc2cc1OCCCN(C)C [Example 183, N-(5-{4-[7-(3-Dimethylamino-propoxy)-6-methoxy-quinolin-4-yloxy]-3-fluoro-phenylsulfamoyl}-4-methyl-thiazol-2-yl)-acetamide] | – | 4.30 to 4.90 | 164 to 166 | 4.30 to 4.90 | 4.60 to 5.00 |
| COc1cc2c(Oc3ccc(NS(=O)(=O)c4cnc(C)[nH]4)cc3F)ccnc2cc1OCCCN1CCC(C)CC1 [Example 168, 2-Methyl-3H-imidazole-4-sulfonic acid (3-fluoro-4-{6-methoxy-7-[3-(4-methyl-piperidin-1-yl)-propoxy]-quinolin-4-yloxy}-phenyl)-amide] | – | 4.30 to 4.90 | 225 to 226 | 4.30 to 4.90 | 4.60 to 5.00 |
